What was measured:
[1] = system: immune infiltrate of MCA205 tumors; assay: Immunophenotyping of the tumor immune infiltrate by flow cytometry; format: in vivo, C57B1/6 mice; conditions: for Density of CD45+ leukocytes in the tumor: day 11 post-chemotherapy
Description: 3 or 11 days post-chemotherapy (d3 or d11), mice were euthanized and the tumors were withdrawn and placed in gentleMACS C tubes (ref 130-096-334 from Miltenyi BiotecTM) previously filled with 1 ml of DMEM or RPMI medium, and immediately put on ice. […] Then, cells were stained with a live dead dye (ref L34959 from ThermoFisher ScientificTM) and an FCblock receptor targeting antibody. For the surface stainings, several anti-mouse fluorochrome-coupled antibodies were employed, that were for 1) myeloid cells “staining 1”: anti-CD45 APC-Fire750 (clone 30E-11, ref 130154 BiolegendTM), anti-Ly-6G PE (clone 1A8, ref 551461 BDTM), anti-Ly-6C FITC (clone AL-21, ref 553104, BDTM), anti-CD11b V450 (clone M1/70, ref 560455 BDTM), anti-CD11c PE-Cy7 (clone HL3, ref 558470 BDTM), anti-CD80 PerCP-Cy5.5 (16-10A1, ref 104722 BiolegendTM), and anti-MHC-II APC (clone M5/114.15.2, ref 107614 BiolegendTM) 2) T-cells “staining 2”: anti-CD3 APC (clone 17A2, ref 17-0032-82 eBioscienceTM), anti-CD8 PE (clone 53-6.7, ref 553032 BDTM), anti-CD4 PerCP-Cy5.5 (clone RM4-5, ref 45-0042-82 eBioscienceTM), anti-CD25 PE-Cy7 (clone PC61.5, ref 25-0251-82 InvitrogenTM), anti-ICOS BV421 (clone 7E.17G9, ref 564070 BDTM) and anti-PD-1 APC-Fire750 (clone 29F.1Al2, ref 135240 BiolegendTM) 3) PD-L1 expressing-cells “staining 4”: anti-CD45 AlexaFluor647 (clone 30E-11, ref 103-124 BiolegendTM), anti-PD-L1 BV421 (clone MIHS, ref 564716 BDTM) and anti-PD-L2 PE-Dazzle594 (clone TY25, ref 107215 BiolegendTM) 4) NKT cells “staining 5”: anti-CD3 FITC (clone 17A2, ref 11-00-32-82 eBioscienceTM) and anti-NK1.1 PerCP-Cy5.5 (clone PK136, ref 551114 BDTM). After the fixation and permeabilization of the cells (thanks to the Cytofix/Cytoperm kit, ref 554714 BDTM for stainings 1, 3, 4 and 5; and with the Foxp3/Transcription Factor kit, ref 00-5523-00 eBioscienceTM for staining 2), intracellular stainings were performed using for “staining 2”: anti-FoxP3 FITC (clone FJK-16s, ref 11-5773-82 eBioscienceTM) and for “staining 3”: anti-IFNg APC (clone XMG1.2, ref 505-810 BiolegendTM), anti-TNFα APC-Cy7 (clone MP6-XT22, ref 506344 BiolegendTM) and anti-IL-2 PE-Dazzle 594 (clone JES6-5H4, ref 503-840 BiolegendTM). Finally, cells were resuspended in FACS buffer and analyzed on a flow cytometer BD LSR II.

PD-L1 = PD-L1 expression on CD45+/- tumor infiltrating cells; format: in vivo, C57B1/6 mice
From the text: WT 9 weeks old C57B1/6 mice were subcutaneously injected with MCA205 WT fibrosarcoma cells. When tumors became palpable, mice underwent two days of fasting (d-2 to d0). HC treatment in drinking water began the day after (d-1), followed by chemotherapy with MTX (d0). 11 days post-chemotherapy, mice were sacrified and tumors were collected, dissociated, filtrated and stained with panel 3 antibodies. The results are represented as percentage among viable cells. […] The data shown represent a pool of two independent experiments sharing all the groups. Statistical analysis were realized using ordinary one-way ANOVA. ****p<0.001, ***p<0.005, **p<0.01, *p<0.05.
3 or 11 days post-chemotherapy (d3 or d11), mice were euthanized and the tumors were withdrawn and placed in gentleMACS C tubes (ref 130-096-334 from Miltenyi Biotec™) previously filled with 1 ml of DMEM or RPMI medium, and immediately put on ice. After a mechanical (with scissors) and chemical digestion (thanks to the tumor dissociation kit and the gentleMACS Octo Dissociator, ref 130-096-730 and 130-096-427, respectively, from Miltenyi Biotec™), tumors were filtered (using MACS smartstrainers […], ref 130-110-916 from Miltenyi Biotec™), washed twice with PBS and distributed in a 96-wells round bottom plate.
Then, cells were stained with a live dead dye (ref L34959 from ThermoFisher Scientific™) and an FCblock receptor targeting antibody. […] Finally, cells were resuspended in FACS buffer and analyzed on a flow cytometer BD LSR II.

[2] = day 11 post-MTX, data not shown

SMILES	Density of CD45+ leukocytes in the tumor ([1]; MTX-treated cancers)	PD-L1 on non-leukocytes from the cancer (CD45- cells, mostly malignant cells) (PD-L1; MCA205 tumor-bearing mice treated with MTX (FIG. 8A, B))	PD-L1 in leukocytes expressing CD11b (PD-L1; MCA205 tumor-bearing mice treated with MTX (FIG. 8C, D))	Percentage of CD45- PD-L1+ cells (PD-L1; MTX alone or in combination with NF or HC, 11 days post-chemotherapy (FIG. 8A))	Mean fluorescent intensity of PD-L1 on CD45- cells (PD-L1; MTX alone or in combination with NF or HC, 11 days post-chemotherapy (FIG. 8B))	Percentage of CD45+ PD-L1+ cells (PD-L1; MTX alone or in combination with NF or HC, 11 days post-chemotherapy (FIG. 8C))	Mean fluorescent intensity (D) of PD-L1 on CD45- cells (PD-L1; MTX alone or in combination with NF or HC, 11 days post-chemotherapy (FIG. 8D))	Increase in the density of total CD3+ and CD8+ T cell infiltrate ([1]; combined with MTX, data not shown)	Myeloid infiltrate ([1]; day 3 post-chemotherapy (MTX), data not shown)	Granulocyte infiltration (Ly6C+Ly6Ghi) [1, 2]	Monocytic dendritic cell subpopulation with activation markers (Ly6G-Ly6ChiCD11b+CD11c+CD80+MHC-IIhi) [1, 2]	Density of CD45+ leukocytes in the tumor ([1]; MTX-treated animals that received HC)	Effect of co-treatment on MTX-induced PD-L1 upregulation (PD-L1; FIG. 8A-D)
O=C1c2c(O)ccc(O)c2C(=O)c2c(NCCNCCO)ccc(NCCNCCO)c21 [MTX, mitoxantrone]	higher density	upregulation	upregulation	increases	increases	increases	increases	–	–	–	–	–	–
O=C(O)CC(O)(C(=O)O)C(O)C(=O)O (stereo not shown) [HC, hydroxycitrate]	–	–	–	–	–	–	–	neither HC nor spermidine	no major increments	increase	increase	more so	not altered

— US20210030703A1, “USE OF CALORIC RESTRICTION MIMETICS FOR POTENTIATING CHEMO-IMMUNOTHERAPY FOR THE TREATMENT OF CANCERS” (INSERM (INSTITUT NATIONAL DE LA SANTÉ ET DE LA RECHERCHE …, priority 2018, published 2021)
